Test results taken from publication PMC10784468 (Nature Communications, 2024).
Like-named read-outs stand apart in the source and are kept apart here. Positions of bridges follow the written chain, without caps; N, C: chain ends. Residues, ends and D or L forms follow the SMILES beside them. *: point of attachment. X1 = O=C(O)c1ccc(-c2c3nc(c(-c4ccc(C(=O)O)cc4)c4ccc([nH]4)c(-c4ccc(C(=O)*)cc4)c4nc(c(-c5ccc(C(=O)O)cc5)c5ccc2[nH]5)C=C4)C=C3)cc1; X2 = O=C(O)C/C(=C/C(=O)*)C(=O)O

How the values were obtained:
[1] = biological target: T1, GPX4 (Homo sapiens, UniProt P36969); assay: Intracellular GPX4 activity detection; assay type: cell-based; set-up: endogenous in cells; host or cells: EJ bladder cancer cells
T1 sequence (P36969 1-197): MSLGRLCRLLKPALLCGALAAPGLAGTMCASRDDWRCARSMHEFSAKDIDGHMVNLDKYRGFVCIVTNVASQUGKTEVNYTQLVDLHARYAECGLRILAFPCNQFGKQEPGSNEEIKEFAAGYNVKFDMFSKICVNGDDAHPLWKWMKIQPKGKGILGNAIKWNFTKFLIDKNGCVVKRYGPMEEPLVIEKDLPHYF
Procedure: (§1) Initially, EJ cells (5 × 10^5) were cultured in 6-well plate with a CO2 incubator overnight at 37 °C. […] Next, EJ cells were collected and washed with PBS for 3 times. Afterwards, the cell lysates were collected by centrifugation at 5000 rpm for 10 min at 4 °C after ultrasonic lysis in an ice bath. Finally, the GPX4 activity were measured with a GPX Assay Kit based on the manufacturer’s instructions.

[2] = tested on: HUVEC cells; assay type: cell-based; settings: HUVEC cells, pH=7.4
Procedure: Supplementary Fig. 27. Viability of HUVEC cells after treated with Gi -F (pH=7.4) and Gi-F-CAA (pH=7.4) at different
concentrations for 48 h (n=3 experimental repeats). Experiment was independently repeated three times with
(1 picture or pasted object on this page, not shown here)

[3] = tested on: EJ cells; assay: Intracellular Fe2+ ions detection; assay type: cell-based
Procedure: Initially, EJ cells (5 × 10^5) were cultured in confocal dish with a CO2 incubator overnight at 37 °C. […] Afterwards, EJ cells were washed with PBS for 3 times and replaced with culture mediums.

[4] = Particle size by DLS; assay type: physicochemical
Procedure: Nano-ZS 3600 (Malvern Instruments, UK) was used to measure the size distribution of the peptide-porphyrin conjugate solutions. The conjugate solutions (40 μM) were incubated at pH 7.4 or pH 6.5 before measurements. An average value was determined by three repeated measurements at 25 °C for each sample. Besides, transmission electron microscopy (TEM, Tecnai G2 20 S-TWIN) was conducted to observe the morphology and diameters of conjugates in aqueous solution, The conjugates (50 μL, 40 μM) were kept in PB solution at pH 7.4 or pH 6.5, which were dropped on copper meshes. After 5 min, unnecessary liquid was removed and the uranyl acetate solution (10 μL) was dropped on this copper mesh to stain the samples for 10 min. Finally, the copper meshes were washed with deionized water, and dried at room temperature for observation.

[5] = Hydrolysis of the peptide-porphyrin conjugates at pH 7.4 and 6.5 (dialysis, HPLC); assay type: physicochemical; settings: 37 °C, dialysis MWCO 1000 Da, released CAA by HPLC, mean of n = 3
Procedure: In vitro hydrolysis analysis of the peptide-porphyrin conjugates was studied in pH values of 7.4 and 6.5 solutions. 20 mg of peptide-porphyrin conjugate was dissolved in 2 mL pH 7.4 buffer solution, which was then transferred into a dialysis bag (MWCO: 1000 Da) and immersed in 25 mL of different pH buffer solutions at 37 °C with continuous shaking respectively. At fixed time intervals (20 min, 40 min, 1 h, 2 h and 4 h), […] chromatography (HPLC, WATERS Alliance HPLC e2489), and an equal volume of fresh buffer solution was replaced to the system. In order to determine the CAA concentration according to the peak area of the CAA, a standard curve of the CAA was plotted, with the peak area as a function of the concentration. […]

[6] = tested on: EJ cells; assay: Intracellular GSH content detection; assay type: cell-based
Procedure: as §1, with “8000 g” for “5000 rpm”, “lysed by freeze-thaw treatment.” for “ultrasonic lysis in an ice bath.”, “GSH contents” for “GPX4 activity”, “GSH” for “GPX”

## CC(C)C[C@H](NC(=O)c1ccc(-c2c3nc(c(-c4ccc(C(=O)O)cc4)c4ccc([nH]4)c(-c4ccc(C(=O)O)cc4)c4nc(c(-c5ccc(C(=O)O)cc5)c5ccc2[nH]5)C=C4)C=C3)cc1)C(=O)N[C@@H](CCCCNC(=O)/C=C(/CC(=O)O)C(=O)O)C(=O)N[C@@H](CC(C)C)C(=O)N[C@@H](CCCCN)C(=O)N[C@@H](CC(C)C)C(=O)N[C@@H](CCCCNC(=O)/C=C(/CC(=O)O)C(=O)O)C(=O)NCC(=O)N[C@@H](C)C(=O)N[C@H]1CSSC[C@@H](C(=O)N2CCC[C@H]2C(=O)N[C@H](C(=O)O)C(C)C)NC(=O)[C@@H]2CCCN2C(=O)[C@H](Cc2ccc(O)cc2)NC(=O)[C@H](CC(C)C)NC(=O)[C@@H]2CCCN2C(=O)[C@H](CC(C)C)NC(=O)[C@H](Cc2c[nH]c3ccccc23)NC(=O)[C@H](CC(N)=O)NC1=O [Gi-F-CAA] (X1-LK(X2)LKLK(X2)GACNWLPLYPCPV-OH; disulfide 9-17; C-terminus assumed)
[1]; EJ cells, 8 h, pH 6.5, 40 μM, PBS group normalized as 1, #1
  Relative activity of GPX4: 0.12
[1]; EJ cells, 8 h, pH 6.5, 40 μM, PBS group normalized as 1, #2
  Relative activity of GPX4: 0.09
[1]; EJ cells, 8 h, pH 6.5, 40 μM, PBS group normalized as 1, #3
  Relative activity of GPX4: 0.17
[1]; EJ cells, 8 h, pH 7.4, PBS group normalized as 1, #1
  Relative activity of GPX4: 0.62
[1]; EJ cells, 8 h, pH 7.4, PBS group normalized as 1, #2
  Relative activity of GPX4: 0.73
[1]; EJ cells, 8 h, pH 7.4, PBS group normalized as 1, #3
  Relative activity of GPX4: 0.69
[1]; pH=6.5, replicate #1
  Relative activity of GPX4: 0.21
[1]; pH=6.5, replicate #2
  Relative activity of GPX4: 0.24
[1]; pH=6.5, replicate #3
  Relative activity of GPX4: 0.19
[1]; pH=7.4, replicate #1
  Relative activity of GPX4: 0.76
[1]; pH=7.4, replicate #2
  Relative activity of GPX4: 0.63
[1]; pH=7.4, replicate #3
  Relative activity of GPX4: 0.6
[2]; log concentration (μM) 0, replicate 1
  Cell viability of HUVEC: 101.3%
[2]; log concentration (μM) 0, replicate 2
  Cell viability of HUVEC: 99.35%
[2]; log concentration (μM) 0, replicate 3
  Cell viability of HUVEC: 93.55%
[2]; log concentration (μM) 0.30103, replicate 1
  Cell viability of HUVEC: 97.11%
[2]; log concentration (μM) 0.30103, replicate 2
  Cell viability of HUVEC: 93.48%
[2]; log concentration (μM) 0.30103, replicate 3
  Cell viability of HUVEC: 94.74%
[2]; log concentration (μM) 0.60206, replicate 1
  Cell viability of HUVEC: 97.32%
[2]; log concentration (μM) 0.60206, replicate 2
  Cell viability of HUVEC: 86.5%
[2]; log concentration (μM) 0.60206, replicate 3
  Cell viability of HUVEC: 95.44%
[2]; log concentration (μM) 0.90309, replicate 1
  Cell viability of HUVEC: 84.68%
[2]; log concentration (μM) 0.90309, replicate 2
  Cell viability of HUVEC: 94.46%
[2]; log concentration (μM) 0.90309, replicate 3
  Cell viability of HUVEC: 84.96%
[2]; log concentration (μM) 1.20412, replicate 1
  Cell viability of HUVEC: 84.75%
[2]; log concentration (μM) 1.20412, replicate 2
  Cell viability of HUVEC: 89.22%
[2]; log concentration (μM) 1.20412, replicate 3
  Cell viability of HUVEC: 82.31%
[2]; log concentration (μM) 1.50515, replicate 1
  Cell viability of HUVEC: 77.42%
[2]; log concentration (μM) 1.50515, replicate 2
  Cell viability of HUVEC: 83.56%
[2]; log concentration (μM) 1.50515, replicate 3
  Cell viability of HUVEC: 82.86%
[2]; log concentration (μM) 1.80618, replicate 1
  Cell viability of HUVEC: 75.32%
[2]; log concentration (μM) 1.80618, replicate 2
  Cell viability of HUVEC: 80.77%
[2]; log concentration (μM) 1.80618, replicate 3
  Cell viability of HUVEC: 73.08%
[2]; log concentration (μM) 2.10721, replicate 1
  Cell viability of HUVEC: 65.68%
[2]; log concentration (μM) 2.10721, replicate 2
  Cell viability of HUVEC: 64.77%
[2]; log concentration (μM) 2.10721, replicate 3
  Cell viability of HUVEC: 61.91%
[2]; log concentration (μM) 2.40824, replicate 1
  Cell viability of HUVEC: 56.53%
[2]; log concentration (μM) 2.40824, replicate 2
  Cell viability of HUVEC: 48.01%
[2]; log concentration (μM) 2.40824, replicate 3
  Cell viability of HUVEC: 52.83%
[3]; EJ cells, pH 6.5, 40 μM, 8 h
  intracellular Fe^2+ (FerroOrange fluorescence), pH 6.5: substantially enhanced fluorescence
[3]; EJ cells, pH 7.4, 8 h
  intracellular Fe^2+ (FerroOrange fluorescence), pH 7.4: no remarkable fluorescence
[3]; pH=6.5, replicate #1
  Concentrations of Fe2+ ions: 22.485 ng/104cells
[3]; pH=6.5, replicate #2
  Concentrations of Fe2+ ions: 27.487 ng/104cells
[3]; pH=6.5, replicate #3
  Concentrations of Fe2+ ions: 29.009 ng/104cells
[3]; pH=7.4, replicate #1
  Concentrations of Fe2+ ions: 12.656 ng/104cells
[3]; pH=7.4, replicate #2
  Concentrations of Fe2+ ions: 15.918 ng/104cells
[3]; pH=7.4, replicate #3
  Concentrations of Fe2+ ions: 12.221 ng/104cells
[4]; 40 μM, PBS 0.01 M, pH 6.5, 1 h, 25 °C
  particle size (DLS) after incubation at pH 6.5 for 1 h: 78 ± 11 nm
[4]; 40 μM, PBS 0.01 M, pH 6.5, before incubation, 25 °C
  particle size (DLS) before incubation: 13 ± 3 nm
[4]; 40 μM, PBS 0.01 M, pH 7.4
  particle size change (DLS) at pH 7.4: no obvious changes
[4]; pH 7.4, peer review response
  size (DLS) at pH 7.4: about 11 ± 2 nm
[5]; pH 6.5 buffer, 0 min
  Hydrolysis of CAA (%): 0%
[5]; pH 6.5 buffer, 20 min
  Hydrolysis of CAA (%): 17.6%
[5]; pH 6.5 buffer, 40 min
  Hydrolysis of CAA (%): 43.7%
[5]; pH 6.5 buffer, 60 min
  Hydrolysis of CAA (%): 53.6%
[5]; pH 6.5 buffer, 120 min
  Hydrolysis of CAA (%): 56.9%
[5]; pH 6.5 buffer, 240 min
  Hydrolysis of CAA (%): 57.5%
[5]; pH 7.4 buffer, 0 min
  Hydrolysis of CAA (%): 0%
[5]; pH 7.4 buffer, 20 min
  Hydrolysis of CAA (%): 3.1%
[5]; pH 7.4 buffer, 40 min
  Hydrolysis of CAA (%): 10.9%
[5]; pH 7.4 buffer, 60 min
  Hydrolysis of CAA (%): 12.1%
[5]; pH 7.4 buffer, 120 min
  Hydrolysis of CAA (%): 13.1%
[5]; pH 7.4 buffer, 240 min
  Hydrolysis of CAA (%): 14.3%
[6]; EJ cells, pH 6.5, 40 μM, 8 h
  intracellular GSH levels: substantial reduction of GSH levels
[6]; pH=6.5, replicate #1
  Relative GSH levels: 0.188
[6]; pH=6.5, replicate #2
  Relative GSH levels: 0.178
[6]; pH=6.5, replicate #3
  Relative GSH levels: 0.129
[6]; pH=7.4, replicate #1
  Relative GSH levels: 0.657
[6]; pH=7.4, replicate #2
  Relative GSH levels: 0.628
[6]; pH=7.4, replicate #3
  Relative GSH levels: 0.54
